Reference: patent US12138320B2, “Composition and methods for tumor imaging and treatment” (The University of Chicago, priority 2020, dated 2024)

Assays:
NCEH1 [1] = target: T1, NCEH1 (Homo sapiens, UniProt Q6PIU2); experiment: Gel-based competitive ABPP (FP-Rho) of cancer cells treated in situ (live cells); type: cell-based; conditions: live cells
T1 construct: serine hydrolase activity in membrane proteome fractions of MDA-MB231 breast cancer cells treated with the indicated concentrations; endogenous in cells; host or cells: PC3 prostate cancer cells; MDA-MB231 breast cancer cells
T1 sequence (Q6PIU2 1-408): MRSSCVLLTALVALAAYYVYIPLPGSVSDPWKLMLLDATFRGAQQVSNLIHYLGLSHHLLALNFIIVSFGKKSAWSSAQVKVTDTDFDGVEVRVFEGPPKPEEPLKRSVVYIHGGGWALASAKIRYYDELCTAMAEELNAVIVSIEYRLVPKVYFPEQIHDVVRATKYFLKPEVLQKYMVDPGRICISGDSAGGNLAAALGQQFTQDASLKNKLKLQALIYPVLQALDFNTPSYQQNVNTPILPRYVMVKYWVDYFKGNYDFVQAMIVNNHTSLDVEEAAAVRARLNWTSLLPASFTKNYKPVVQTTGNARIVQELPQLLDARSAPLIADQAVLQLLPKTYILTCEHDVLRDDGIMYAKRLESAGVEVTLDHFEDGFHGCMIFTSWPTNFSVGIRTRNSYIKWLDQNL
Method: Proteome Preparation: Human PC3 and MDA-MB231 cells were grown in Roswell Park Memorial Institute (RPMI) medium and Dulbecco's Modified Eagle Medium (DMEM), respectively, supplemented with 10% fetal bovine serum (FBS) and 2 mM L-glutamine, and cultured in a humidified 5% CO2 incubator at 37° C. Cells were washed twice with phosphate buffered saline (PBS, pH 7.5), collected by scraping, resuspended in 0.2 ml PBS, sonicated, and fractionated via centrifugation (100,000×g, 45 min) into a pellet (containing membrane proteins) and supernatant (containing soluble proteins). For murine proteomes, mouse tissues were Dounce-homogenized on ice in cold PBS, followed by a low-speed spin (1,400×g, 5 min) to remove debris. After sonication, the membrane and soluble proteomes were fractionated as described above. All sample pellets were washed and resuspended in PBS via sonication. Protein concentrations were determined using a Bradford protein assay kit (Bio-Rad, Hercules, California, United States of America)). Samples were stored at −80° C. until use.
Cellular JW199 Treatments: JW199 was dissolved in dimethyl sulfoxide (DMSO) vehicle, which was diluted into media or buffer before addition to cells or proteomes, respectively. For in vitro proteome experiments, the final DMSO concentration was 4%. For live cell (in situ) treatments, 2×10^6 cells were seeded in 6 cm dishes (100% confluency) 24 hours prior to JW199 treatment in serum-free media. At the end of the experiment, cells were washed and collected, as described above, for gel-based activity profiling.
Gel-based Activity Profiling: Cell lysates were treated with 1 μM fluorophosphonate-rhodamine (FP-rho) for 30 min at room temperature (50 μL total reaction volume). Reactions were quenched with one volume of standard 4× sodium dodecyl sulfate/polyacrylamide gel electrophoresis (SDS/PAGE) reducing sample buffer, resolved on 10% acrylamide SDS/PAGE gels, and visualized in-gel with a fluorescence scanner sold under the tradename CHEMIDOC™ MP (Bio-Rad, Hercules, California, United States of America). Densitometric quantification of band intensities were used to calculate the percent inhibition via JW199. 50% inhibitory concentration (IC50) values were determined from dose-response curves constructed in GraphPad Prism software from three independent replicates for each inhibitor concentration. For competitive ABPP with JW576, tumor lysates were treated with 1 μM JW576 for 30 min at 37° C. (50 μL total reaction volume). Competitive ABPP was then conducted as described above. NCEH1 activity was calculated by densitometric quantification (ImageJ software; National Institutes of Health (NIH), Bethesda, Maryland, United States of America) of JW576-labeled band intensity (BODIPY fluorescence) from three independent replicates.

NCEH1 [2] = target: T2, NCEH1 (Mus musculus, UniProt Q8BLF1); experiment: In vivo microPET/CT imaging and ex vivo biodistribution in nude mice
T2 construct: For murine proteomes, mouse tissues were Dounce-homogenized on ice in cold PBS; from tissue; host or cells: athymic nude mice: heart, kidney, lung, liver, brain, spleen and other organs
T2 sequence (Q8BLF1 1-408): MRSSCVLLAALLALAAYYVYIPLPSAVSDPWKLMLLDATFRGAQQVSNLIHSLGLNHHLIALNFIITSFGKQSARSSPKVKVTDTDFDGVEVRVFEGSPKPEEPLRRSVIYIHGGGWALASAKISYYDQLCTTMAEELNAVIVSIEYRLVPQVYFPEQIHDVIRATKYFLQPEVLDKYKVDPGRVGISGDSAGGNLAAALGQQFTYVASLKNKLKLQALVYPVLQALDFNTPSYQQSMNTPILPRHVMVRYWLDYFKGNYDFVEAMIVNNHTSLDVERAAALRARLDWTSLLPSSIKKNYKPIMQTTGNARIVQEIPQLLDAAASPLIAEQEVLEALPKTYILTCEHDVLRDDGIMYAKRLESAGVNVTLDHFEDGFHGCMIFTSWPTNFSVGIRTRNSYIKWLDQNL
Method: In vivo microPET/CT imaging: All imaging was performed by the Integrated Small Animal Imaging Research Resource (iSAIRR) at the University of Chicago (Chicago, Illinois, United States of America) on a β-Cube and X-Cube (Molecubes NV, Ghent, Belgium). […] MicroCT images were acquired using the general purpose protocol, with energy of 50 KeV and a tube current of 100 μA. Respiration rate and body temperature of the animal were constantly monitored during the entire scanning period with the p-Cube and X-Cube onboard monitoring system. A 1 hr dynamic PET acquisition was started 2 hours after [^18F]JW199 injection. Dynamic reconstruction was performed for 6 frames of 10 minutes each using a three-dimensional (3D) OSEM algorithm with 400 μm isometric voxel size. For competition studies, mice were pretreated with either 80 mg/kg JW480 or vehicle (polyethylene glycol 300 (PEG300)) via oral gavage, followed 4 hours later by dosing with [^18F]JW199 and imaging as described. For the MDA-MB231 study, [^18F]JW199 injection was followed immediately by dynamic PET acquisition (90 min) and microCT scanning as detailed above. Dynamic PET image reconstruction included 9 frames of 10 minutes each.
Dynamic reconstruction was performed using a three-dimensional OSEM algorithm with 400 μm isometric voxel size. All image analysis was performed with software sold under the tradename VivoQuant™ (inviCRO, LLC, Boston, Massachusetts, United States of America). 3D regions of interest (ROIs) were drawn and standardized uptake values (SUVs) and percent injected dose per cubic centimeter of tissue (% ID/cc) were calculated for each ROI and time point. % ID/cc was calculated as a ratio of tissue radioactivity concentration (mCi/g) at time of scan to total injected activity (millicurie (mCi)) at time of scan.
Ex vivo Biodistribution: All animals were sacrificed at 3 hours post [^18F]JW199 injection and organs and tumors were immediately harvested. All tissues were weighed, and radioactivity was counted using a Cobra II […] (PerkinElmer, Waltham, Massachusetts, United States of America) calibrated for [^18F] energy. The concentration of radioactivity in tumor, organs, and tissues was determined as percentage of injected dose per cubic centimeter of tissue (% ID/cc).

**Q.** Which results are given for `CC(C)c1ccccc1OC(=O)NCCc1ccc(OCC[18F])cc1` [[^18F]JW199, fluorine-18-labeled 2-isopropylphenyl-(4-(2-fluoroethoxy)phenethyl)carbamate]?
**A.** concentrations at which active NCEH1 is labeled in live cells (NCEH1 [1]): nM concentrations; PET signal kinetics in target organs (NCEH1 [2]; during the entire imaging procedure): quickly reached and maintained constant levels; PET signal in the brain (NCEH1 [2]; i.v.): low PET signal; CNS penetration (NCEH1 [2]; i.v., inferred from brain PET signal): low CNS penetration; uptake in adipose depots, liver and bone (NCEH1 [2]; i.v., tissues with low Nceh1 mRNA levels): relatively low uptake; PET signal accumulation in kidney, heart and lung (NCEH1 [2]; i.v., ~100 μCi, tissues with relatively high Nceh1 expression): Significant signal accumulation; accumulation in mouse tissues (NCEH1 [2]; mouse, in vivo): rapid, NCEH1-dependent accumulation
